Experimental data as given in ChEMBL document CHEMBL1201862, “PubChem BioAssay data set” (2004).
Activity calls are given as the source filed them.

Legend:
[1] = target: T1, Heat shock factor protein 1 (Mus musculus, UniProt P38532); assay: decrease of HSF1-responsive luciferase luminescence – cell-based, NIH3T3, dose retest, confirmation (AID 2382); type: functional;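 also: NIH3T3 fibroblasts with HSF1-driven luciferase reporter stressed by proteasome inhibitor MG132; luminescence from HSF1-driven luciferase expression after 8 hours of MG132 stress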
T1 sequence (P38532 whole entry): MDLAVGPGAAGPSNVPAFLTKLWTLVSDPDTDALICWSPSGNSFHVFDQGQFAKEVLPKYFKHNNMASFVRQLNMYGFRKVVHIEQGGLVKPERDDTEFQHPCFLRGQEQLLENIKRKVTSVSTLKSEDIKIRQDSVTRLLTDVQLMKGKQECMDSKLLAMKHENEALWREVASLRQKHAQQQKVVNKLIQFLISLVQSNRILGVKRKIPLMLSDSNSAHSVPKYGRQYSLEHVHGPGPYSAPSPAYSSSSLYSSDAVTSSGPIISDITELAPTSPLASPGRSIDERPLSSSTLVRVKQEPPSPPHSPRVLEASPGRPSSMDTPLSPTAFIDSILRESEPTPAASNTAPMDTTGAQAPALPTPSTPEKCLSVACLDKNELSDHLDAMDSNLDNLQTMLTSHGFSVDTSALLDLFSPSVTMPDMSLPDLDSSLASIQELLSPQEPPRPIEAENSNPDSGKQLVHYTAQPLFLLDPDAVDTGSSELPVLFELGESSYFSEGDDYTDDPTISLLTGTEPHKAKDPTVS

[2] = target: T2, Corticotropin-releasing factor receptor 2/Corticotropin-releasing factor-binding protein (Homo sapiens, UniProt P24387+Q13324); assay: activators of CRF receptor 2 with binding protein – uHTS hits, confirmation (AID 602473); type: functional; settings: read-out: EC50_Mean
T2 sequence (Q13324 whole entry): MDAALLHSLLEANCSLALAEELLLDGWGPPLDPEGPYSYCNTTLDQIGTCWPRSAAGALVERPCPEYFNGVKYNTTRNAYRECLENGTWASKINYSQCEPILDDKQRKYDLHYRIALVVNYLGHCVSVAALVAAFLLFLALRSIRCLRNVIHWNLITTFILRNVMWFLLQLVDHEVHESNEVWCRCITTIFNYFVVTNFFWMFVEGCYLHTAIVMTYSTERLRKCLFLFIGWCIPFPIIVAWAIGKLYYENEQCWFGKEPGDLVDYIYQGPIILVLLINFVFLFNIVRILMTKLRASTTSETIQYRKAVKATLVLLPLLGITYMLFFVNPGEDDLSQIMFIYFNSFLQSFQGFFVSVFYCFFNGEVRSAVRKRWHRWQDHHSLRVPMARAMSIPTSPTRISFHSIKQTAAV
T2 sequence (P24387 whole entry): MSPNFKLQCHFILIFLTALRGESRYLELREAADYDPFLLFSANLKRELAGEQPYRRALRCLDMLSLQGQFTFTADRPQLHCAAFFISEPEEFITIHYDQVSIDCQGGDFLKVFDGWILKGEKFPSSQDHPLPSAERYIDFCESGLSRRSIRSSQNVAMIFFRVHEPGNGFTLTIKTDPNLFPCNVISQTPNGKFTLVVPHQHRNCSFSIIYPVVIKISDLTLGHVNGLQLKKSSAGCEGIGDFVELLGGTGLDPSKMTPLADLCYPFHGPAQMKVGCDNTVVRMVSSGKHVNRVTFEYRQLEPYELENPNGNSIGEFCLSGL

[3] = target: T2, Corticotropin-releasing factor receptor 2/Corticotropin-releasing factor-binding protein; assay: Dose Response confirmation of uHTS hits for small molecule antagonists of the CRF-binding protein and CRF-R2 receptor complex.; type: functional; settings: read-out: IC50_Mean
[4] = Luminescence Cell-Based Dose Retest to Confirm Inhibitors of Cancer Stem Cells. [Related pubchem assays (depositor defined):AID2717, AID2721]; type: functional; settings: Homo sapiens
[5] = tested on: Streptococcus; assay: GAS UMAA2166 growth inhibition – luminescence, BacTiterGlo, counter-screen for streptokinase expression inhibitor project, dose response (AID 1915); type: functional, organism-based;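 also: potency for reduction of bacterial viability or growth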
[6] = target: T3, Streptokinase A (Streptococcus pyogenes serotype M1, UniProt P10520); assay: viability-normalized secreted streptokinase activity reduction – plasminogen activation absorbance, OD405, dose response (AID 1914); type: functional, Streptococcus pyogenes M1 GAS;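 also: secreted streptokinase activity via plasminogen activation per viability signal from cell pellet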
T3 sequence (P10520 whole entry): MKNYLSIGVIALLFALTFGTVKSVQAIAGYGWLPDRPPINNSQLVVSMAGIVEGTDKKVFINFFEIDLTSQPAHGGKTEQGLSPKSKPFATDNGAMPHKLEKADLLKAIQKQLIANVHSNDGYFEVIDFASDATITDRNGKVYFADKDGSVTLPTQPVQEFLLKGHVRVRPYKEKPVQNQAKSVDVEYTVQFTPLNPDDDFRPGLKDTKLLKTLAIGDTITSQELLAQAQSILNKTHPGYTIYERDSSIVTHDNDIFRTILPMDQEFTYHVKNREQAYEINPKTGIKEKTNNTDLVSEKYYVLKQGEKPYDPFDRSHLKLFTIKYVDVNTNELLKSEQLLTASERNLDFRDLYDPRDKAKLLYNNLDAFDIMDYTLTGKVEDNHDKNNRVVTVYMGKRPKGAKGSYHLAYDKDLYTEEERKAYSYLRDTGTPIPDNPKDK

[7] = tested on: Streptococcus sp. 'group A'; assay: Streptococcus pyogenes SK(-)GAS viability under kanamycin – luminescence, BacTiterGlo, confirmation, counter-screen for streptokinase expression inhibitor project, dose response (AID 1900); type: functional, organism-based
[8] = target: FAD-linked sulfhydryl oxidase ALR (Homo sapiens, UniProt P55789); assay: ALR-catalysed DTT oxidation blockers – biochemical, H2O2 detection, luminescence, cherry-pick, dose response (AID 493248)
[9] = target: T4, Rac GTPase-activating protein 1 (Homo sapiens, UniProt Q9H0H5); assay: blockers of MgcRacGAP-driven Rac1 GTP hydrolysis – biochemical, ADP Hunter fluorescence, primary and confirmatory, confirmation (AID 624330); type: functional
T4 sequence (Q9H0H5 whole entry): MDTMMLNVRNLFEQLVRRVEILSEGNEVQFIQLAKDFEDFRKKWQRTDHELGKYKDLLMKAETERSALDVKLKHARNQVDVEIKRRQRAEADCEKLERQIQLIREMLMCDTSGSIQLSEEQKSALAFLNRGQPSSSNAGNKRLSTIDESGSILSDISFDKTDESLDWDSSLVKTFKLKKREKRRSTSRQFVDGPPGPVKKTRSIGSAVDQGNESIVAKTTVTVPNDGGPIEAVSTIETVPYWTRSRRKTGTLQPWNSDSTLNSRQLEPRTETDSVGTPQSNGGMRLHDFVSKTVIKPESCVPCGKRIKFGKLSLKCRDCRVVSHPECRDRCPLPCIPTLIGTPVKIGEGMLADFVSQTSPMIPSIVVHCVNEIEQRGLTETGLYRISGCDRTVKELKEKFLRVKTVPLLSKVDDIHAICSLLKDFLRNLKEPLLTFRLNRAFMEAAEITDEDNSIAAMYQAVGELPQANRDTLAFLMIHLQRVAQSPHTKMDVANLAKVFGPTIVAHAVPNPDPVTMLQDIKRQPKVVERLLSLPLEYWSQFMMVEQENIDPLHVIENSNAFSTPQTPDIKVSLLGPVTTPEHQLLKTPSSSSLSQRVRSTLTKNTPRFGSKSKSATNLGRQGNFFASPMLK

[10] = tested on: INS1; assay: INS-1E survival protection against cytokine death – cell-based, luminescence, retest, dose response (AID 449756); type: functional; settings: Rattus norvegicus;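 also: cell death triggered by IL-1 beta plus TNF-alpha plus IFN-gamma mixture; protective hits raise ATP signal compared with cytokine alone wells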
[11] = NIH3T3 cell viability loss – ATP luminescence, mouse fibroblasts, counter-screen, dose response (AID 2010); type: functional, cell-based;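 also: cells exposed to compound for about 90 hours before reading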
[12] = Trypanosoma cruzi growth suppression in host cells – NIH3T3 host cells, beta-gal luminescence, confirmation (AID 2044); type: functional, cell-based;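 also: intracellular parasites grown in NIH/3T3 mouse fibroblasts as host cells; luminescent beta-galactosidase reporter signal from transgenic T. cruzi replicating inside host cells; inhibitors lower the luminescence signal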
[13] = reduction of Shn3 3'UTR-driven luciferase in osteoblasts – cell-based, Clone20 osteoblasts, firefly luciferase, cherry-picked, dose response (AID 624132); type: functional;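 also: firefly luciferase luminescence from reporter carrying the Shn3 3'UTR in osteoblasts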
[14] = P. falciparum Dd2 growth inhibitors, dose response, SYBR Green, cherry-picked samples (AID 1159567); type: functional, cell-based

Sequence of FAD-linked sulfhydryl oxidase ALR (P55789 whole entry): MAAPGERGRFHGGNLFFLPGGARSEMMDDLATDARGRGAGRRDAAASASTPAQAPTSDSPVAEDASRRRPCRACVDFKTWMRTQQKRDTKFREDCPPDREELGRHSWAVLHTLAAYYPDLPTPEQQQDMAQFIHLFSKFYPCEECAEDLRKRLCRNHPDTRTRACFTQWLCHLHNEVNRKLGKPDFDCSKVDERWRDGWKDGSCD

Structure (SMILES): CC(C)(C)c1ccc(/C=C2\SC(=O)N(CCNC(=O)c3cccc(S(=O)(=O)N4CCOCC4)c3)C2=O)cc1
- EC50 [1]: 2.43 µM (active)

Structure (SMILES): CCOC(=O)C1CCCN(C2CC(=O)N(c3ccccc3)C2=O)C1 (configuration not stated)
- EC50 [2]: > 53 µM (inactive)
- IC50 [3]: > 47.1 µM (inactive)

Structure (SMILES): FC(F)(F)c1cccc(Nc2ncnc3ccccc23)c1
- AC50 [4]: 1.43 µM (active)

Structure (SMILES): CN1C(=O)NC(c2ccccc2)(C(F)(F)F)S/C1=C(/C#N)c1nnc(N2CCOCC2)n1-c1ccccc1 (configuration not stated)
- EC50 [5]: > 150 µM (not active)
- EC50 [2]: > 53 µM (inactive)
- EC50 [6]: > 150 µM (not active)
- IC50 [3]: > 47.1 µM (inactive)
- EC50 [7]: > 150 µM (not active)

Structure (SMILES): CC(C)C(=O)Nc1ccc(C(=O)N2CCN(C(=O)c3ccco3)CC2)cc1
- EC50 [1]: > 195 µM (not active)

Structure (SMILES): CSCc1ccc(C(=O)NC(C)c2cnn(-c3ccccn3)c2C)o1 (configuration not stated)
- AC50 [8]: 9.51 µM (active)

Structure (SMILES): CN(C(=O)c1ccccc1C(=O)OCC(=O)Nc1ccc(S(N)(=O)=O)cc1)c1ccccc1
- EC50 [1]: > 195 µM (not active)

Structure (SMILES): CCc1sc(C(=O)NCCc2ccc(S(N)(=O)=O)cc2)cc1Br
- EC50 [2]: > 53 µM (inactive)
- IC50 [3]: > 47.1 µM (inactive)

Structure (SMILES): Cn1c(-c2ccccc2)cnc1NCc1ccc(-c2ccccc2)cc1
- AC50 [4]: 1.34 µM (active)
- IC50 [9]: 78.1 µM (active)

Structure (SMILES): COc1ccc(C2NC(=O)C(C#N)=C(S)N2c2ccccc2)cc1OC (configuration not stated)
- AC50 [8]: < 0.014 µM (active)

Structure (SMILES): CC1CCC(NC(=O)Nc2cccs2)CC1 (configuration not stated)
- AC50 [8]: 1.18 µM (active)

Structure (SMILES): Fc1ccc(N2CCN(Cc3ccccn3)CC2)cc1
- AC50 [8]: 8.77 µM (active)

Structure (SMILES): C/[N+]([O-])=C\C1C(=O)CC(C)(C)CC1=O
- EC50 [2]: > 53 µM (inactive)
- IC50 [3]: > 47.1 µM (inactive)
- EC50 [1]: > 195 µM (not active)

Structure (SMILES): COC(=O)Nc1ccc(S(=O)(=O)N2CCC(C(=O)N(C)C3CCCCC3)CC2)cc1
- AC50 [8]: 1.92 µM (active)

Structure (SMILES): COc1ccc(-c2nc3ccc(C)cn3c2NCc2ccccc2)cc1SC1CCCCC1
- AC50 [10]: 2.61 µM (active)
- EC50 [11]: > 60 µM (not active)
- EC50 [12]: 1.2 µM (active)

Structure (SMILES): CN(Cc1ccccc1)S(=O)(=O)c1nnc(NC(=O)c2ccc(F)cc2)s1
- EC50 [2]: > 53 µM (inactive)
- IC50 [3]: < 0.368 µM (active)

Structure (SMILES): O=C1Nc2ccccc2N(O)N1c1cc(-c2cccc(Cl)c2)no1
- EC50 [2]: 6.32 µM (active)
- IC50 [3]: > 47.1 µM (inactive)
- AC50 [8]: 1.92 µM (active)

Structure (SMILES): COc1ccc(NC2CCCN(C(=O)CCc3ccccc3F)C2)cc1 (configuration not stated)
- IC50 [9]: 65.4 µM (active)
- AC50 [8]: 13.4 µM (active)

Structure (SMILES): COc1ccc(C(=O)Nc2ccc3c(c2)nc(CN2CCCC2)n3C)cc1
- EC50 [1]: > 195 µM (not active)

Structure (SMILES): COC(=O)c1ccc(NC(=O)NC2CCCCC2)cc1
- EC50 [1]: > 195 µM (not active)

Structure (SMILES): O=C(Cc1ccc(-n2cccc2)cc1)N1CCN(c2ccccc2F)CC1
- EC50 [2]: > 53 µM (inactive)
- IC50 [3]: > 47.1 µM (inactive)

Structure (SMILES): Cc1ccc([N+](=O)[O-])cc1N(CC(=O)Nc1ccc(S(=O)(=O)Nc2cccc(C(F)(F)F)c2)cc1)S(C)(=O)=O
- AC50 [4]: 3.7 µM (active)
- AC50 [10]: 2.56 µM (active)
- EC50 [11]: > 60 µM (not active)
- EC50 [12]: 1.86 µM (active)

Structure (SMILES): Cc1ccnc(NC(=O)CS(=O)(=O)c2ccccc2)c1
- EC50 [1]: > 195 µM (not active)

Structure (SMILES): NS(=O)(=O)c1ccc(CNC(=O)c2cnccn2)cc1
- EC50 [1]: > 195 µM (not active)

Structure (SMILES): O=C(NNC(=O)c1ccccc1OCc1ccc(F)cc1)c1ccccc1O
- EC50 [5]: 3.62 µM (active)
- AC50 [10]: 2.67 µM (active)
- EC50 [7]: 3.68 µM (active)

Structure (SMILES): COc1ccccc1OCCCCOc1ccccc1C(C)=O
- AC50 [10]: 12 µM (active)

Structure (SMILES): Cc1ccsc1C(=O)NNC(=O)CCN1CCN(c2ccccc2)CC1
- AC50 [8]: 4.88 µM (active)

Structure (SMILES): Cc1ccc(NC2CCCN(C(=O)c3cc4ncccn4n3)C2)cc1C (configuration not stated)
- AC50 [8]: 4.14 µM (active)

Structure (SMILES): COc1ccc(NC(=O)N(C)C[C@H]2Oc3c(NS(=O)(=O)c4ccc(F)cc4)cccc3C(=O)N([C@H](C)CO)C[C@@H]2C)cc1
- AC50 [10]: > 260 µM (inactive)

Structure (SMILES): C=C1CCN([C@@H](CC(C)C)C(=O)Nc2nc3ccc(Cl)cc3s2)S(=O)(=O)c2ccccc21
- AC50 [4]: 5.19 µM (active)

Structure (SMILES): COc1ccc(S(=O)(=O)N(CC(C)C)C2CCS(=O)(=O)C2)cc1OC (configuration not stated)
- EC50 [2]: > 53 µM (inactive)
- IC50 [3]: > 47.1 µM (inactive)

Structure (SMILES): O=C(O)C1(Nc2ccccc2Cl)CCCC1
- AC50 [13]: 29.5 µM (active)

Structure (SMILES): COc1cc(/C=N/NC(=O)c2ccc(O)nn2)ccc1O
- IC50 [9]: 23.9 µM (active)
- AC50 [8]: 1.22 µM (active)

Structure (SMILES): C[C@H]1CN([C@@H](C)CO)C(=O)c2c(c3ccccc3n2C)-c2ccccc2CO[C@@H]1CN(C)C(=O)Nc1cccc(F)c1
- AC50 [14]: 5.29 µM (active)
